What was measured:
P-gp (MDR1) = experiment: Bidirectional permeability measurements in MDCK-MDR1 monolayers; type: in vitro ADME, canine; details: dog, MDCK-MDR1, read-out: ER [Papp(B→A)⁄Papp(A→B)]
Description: (§1) MDCK-MDR1 cells at passage 17 were cultured in DMEM supplemented with 10% FBS, 1% glutamine, 100 U/mL penicillin/streptomycin, 1% NEAA, and 1 mmol/L sodium pyruvate. The cells were incubated overnight at 37°C with 5% CO2 and a relative humidity of 90%. Once the cells reached approximately 80% confluence, they were treated with a 0.25% trypsin/EDTA solution to dissociate the cells. Subsequently, the cells were seeded at a density of 5 × 10^5 cells/cm^2 in Millicell-96 well plates (Millipore, Burlington, USA). Prior to conducting the experiments, the integrity of the cell monolayer was confirmed by measuring transepithelial electrical resistance (TEER) using a Millicell ERS® meter (Millipore, Burlington, USA). A TEER value greater than 400 Ω cm^2 was required to ensure the formation and preservation of tight junctions.
(§2) Cell monolayers were preincubated with HBSS for 15 min at 37°C. To measure the A→B (apical side to basolateral side of monolayer) transporter, 400 μL of ammoxetine solution was added to the A-side (donor chamber), and 1,200 μL of HBSS solution was added to the B-side (receiver chamber). The B→A transporter was evaluated by adding 1,200 μL of ammoxetine solution to the B-side (donor chamber) and 400 μL of HBSS solution to the A-side (receiver chamber). At 0 h, 50 μL of the solution was taken from the donor chamber, and aliquots of 50 μL were taken from the receiver chamber at 15, 30, 45, 60, 90, and 120-min time intervals. The collected aliquots were immediately replaced with equal volumes of fresh blank HBSS. Ammoxetine transport was studied at three concentrations: 0.2, 1, and 5 μg/mL, with each concentration evaluated in triplicate. […] Ammoxetine samples collected from the receiver chambers at different time points were mixed with 150 μL of acetonitrile/methanol (1:1, v/v) solution containing 50 ng/mL L-phencynonate (IS). The mixtures were then vortexed for 1 min and centrifuged for 10 min at 13,800×g. The supernatants were analyzed using an LC-MS-MS method.
(§3) The apparent permeability coefficient ( Papp , cm/s) values for ammoxetine were determined using Equation 1: Papp=dQ/dt/A×C0 (1)
(§4) Here, dQ/dt represents the amount of drug transported to the receiver chamber within a specific time period, A is the surface area of the cell monolayer (=0.33 cm^2), and C0 is the initial concentration of ammoxetine.
(§5) In general, the involvement of a P-gp-mediated efflux mechanism was indicated if the efflux ratio ( ER ) value exceeded 1.5 ([Langthaler et al., 2024]). […]

[1] = as above; type: in vitro ADME, canine; details: dog, MDCK-MDR1, 2 h
Description: as §1, §2, §3, §4, §5

P-gp = experiment: as above; type: in vitro ADME, canine; details: dog, MDCK-MDR1, with verapamil 100 μmol/L, verapamil 100 μmol/L
Description: as §1, §2, §3, §4, §5

[2] = design: method as in Xue et al., 2017; details: citric acid/phosphate buffer (pH 2); ref Xue et al., 2017; cited from earlier work
[3] = Hepatic microsome stability assay, DLM; type: in vitro ADME, dog; details: beagle, dog, liver microsomes, pH 7.4; 1 μmol/L, 0.2 g/L microsomes, NADPH
Description: (§6) A hepatic microsome stability assay was conducted to investigate the metabolic disposition of ammoxetine. In this assay, 100 μL of ammoxetine (2.5 μmol/L) was incubated at 37°C with 100 μL of liver microsomes (RLM, DLM, MLM, or HLM) formulated in a 5 mmol/L dipotassium hydrogen phosphate (K2HPO4) buffer at pH 7.4. The concentration of microsomes was 0.5 g/L. To initiate the incubations, 50 μL of NADPH solution preincubated at 37°C was added. […] Parallel triplicate samples were prepared for each time point, including 0, 2, 5, 10, 15, 30, 60, 90, and 120 min. To stop the reactions at each time point, 250 μL of ice-cold precipitating agent (acetonitrile/methanol, 1:1, v/v) containing 500 ng/mL of L-phencynonate (IS) was added to the incubation mixture. The samples were vortexed for 2 min at 4°C and then centrifuged at 13,800×g for 10 min. The supernatants were analyzed using an LC-MS-MS approach. […]
(§7) In Formula 3, t1/2 (min) represents the half-life of ammoxetine in liver microsomes. It is calculated by dividing −0.693 by the resulting slope (k e) obtained from a natural logarithm plot of the remaining concentration of ammoxetine against incubation time. […]

DLM = experiment: Hepatic microsome stability assay, DLM; type: in vitro ADME, dog; details: predicted hepatic clearance
Description: as §6, §7

[4] = Hepatic microsome stability assay, RLM; type: in vitro ADME, rat; details: rat, liver microsomes, pH 7.4; 1 μmol/L, 0.2 g/L microsomes, NADPH
Description: as §6, §7

RLM = experiment: Hepatic microsome stability assay, RLM; type: in vitro ADME, rat; details: predicted hepatic clearance
Description: as §6, §7

**Q.** What does the source list for `CNCC[C@H](Oc1cccc2c1OCO2)c1cccs1` [ammoxetine]?
**A.** efflux ratio at 120 min, 0.2 μg/mL (P-gp (MDR1); 0.2 μg/mL): 1.67; efflux ratio at 120 min, 1 μg/mL (P-gp (MDR1); 1 μg/mL): 1.74; efflux ratio at 120 min, 5 μg/mL (P-gp (MDR1); 5 μg/mL): 1.9; Papp A→B at 2 h, 0.2 μg/mL ([1]; 0.2 μg/mL): 15.8 ± 2.83 ×10⁻⁶ cm/s; Papp B→A at 2 h, 0.2 μg/mL ([1]; 0.2 μg/mL): 26.5 ± 5.3 ×10⁻⁶ cm/s; Papp A→B at 2 h, 1 μg/mL ([1]; 1 μg/mL): 6.61 ± 0.555 ×10⁻⁶ cm/s; Papp B→A at 2 h, 1 μg/mL ([1]; 1 μg/mL): 11.5 ± 2.93 ×10⁻⁶ cm/s; Papp A→B at 2 h, 5 μg/mL ([1]; 5 μg/mL): 13.2 ± 1.26 ×10⁻⁶ cm/s; Papp B→A at 2 h, 5 μg/mL ([1]; 5 μg/mL): 25.2 ± 3.49 ×10⁻⁶ cm/s; Papp A→B at 120 min, 0.2 μg/mL (P-gp; 0.2 μg/mL): 27.2 ± 6.43 ×10⁻⁶ cm/s; Papp A→B at 120 min, 1 μg/mL (P-gp; 1 μg/mL): 28.8 ± 1.89 ×10⁻⁶ cm/s; Papp A→B at 120 min, 5 μg/mL (P-gp; 5 μg/mL): 29.9 ± 3.29 ×10⁻⁶ cm/s; stability in buffer [2]: instability; half-life at 1 μmol/L [3]: 138 ± 2.96 min; CL h (DLM): 16.64 ± 0.17 mL/min/kg; half-life at 1 μmol/L [4]: 12.8 ± 0.99 min; CL h (RLM): 49.58 ± 0.39 mL/min/kg

From publication PMC11579541, “In vitro, in vivo, and in silico approaches for evaluating the preclinical DMPK profiles of ammoxetine, a novel chiral serotonin and norepinephrine reuptake inhibitor” (Frontiers in Pharmacology, 2024)
